Experimental data reported in patent EP3833345B1, “SMALL MOLECULE-INHIBITORS OF 6-PHOSPHOFRUCTO-1-KINASE FOR REDUCING LACTATE GENERATION BY CANCER CELLS” (Kemijski Institut, priority 2018, dated 2020).

How the values were obtained:
Type in all cases: cell-based
MDA-MB-231 cells [1] = assay: total cell numbers of MDA-MB-231 cells at end of incubation; conditions: single addition, different concentrations
Description: (§1) Inhibitors No. 23, 29, 30 and 31 were tested for preventing lactate generation by the MDA-MB-231 cells. […] No significant discrepancies of total cell numbers were observed (Figure 14e) due to the different concentrations of inhibitors in the medium. […] The average percent of dead MDA-MB-231 cells in the control and in the presence of different concentrations of inhibitors were as follows: inh. 23 (2,98±0,2%), inh. 29 (3,37±0,39%), inh. 30 (3,4±0,21%), inh. 31 (6,87±0,44%). Additionally, cytotoxicity of inh. 3 (7,2±0,47%) and 9 (6,59±0,29%) for MDA-MB-231 cells were also determined. No dose dependent decrease of survival was observed by any inhibitor.
(§2) In MDA-MB-231 calls similar results to those found in Caco-2 cells were observed. […] No significant cytostatic (Figure 17f) or cytotoxic effect of inhibitors could be detected after 92 hours of incubation despite of sequential addition of various concentrations of inhibitors. The following average percentages of dead cells were perceived in the medium without and with inh. 3 (2,05±0,18%), inh. 9 (1,85±0,05%), inh. 23 (2,20±0,15%), inh. 29 (1,54±0,16%) and inh. 30 (2,00±0,18%). No detrimental effects of increased inhibitors concentrations on cell deaths have been observed.

Caco-2 cells [2] = assay: cytotoxicity in Caco-2 cells (lactate dehydrogenase (LDH) kit)
Description: (§3) Lactate generation, growth yield and survival under normal and inhibitory conditions of three different tumorigenic cells lines were determined in more detailed measurements. […] Cytotoxicity was measured by the Lactate dehydrogenase (LDH) kit (Roche).

Caco-2 cells [3] = assay: total cell numbers of Caco-2 cells at end of incubation; conditions: single addition, end of incubation (92 hours)
Description: as §3

MDA-MB-231 cells [4] = assay: cytotoxicity in MDA-MB-231 cells (LDH kit)
Description: as §3
Inhibitors No. 23, 29, 30 and 31 were tested for preventing lactate generation by the MDA-MB-231 cells.

Caco-2 cells [5] = assay: lactate excretion by Caco-2 cells; conditions: single addition, different concentrations (20-80 µM)
Description: Preliminary in vivo tests were run by measuring lactate production by three different tumorigenic cell lines. […] For the experiment, the following tumorigenic cells lines originating from different tumours were tested: Caco-2 cells (Figure 10a), originating from colorectal adenoma carcinoma; COLO 829 cells (Figure 10b), isolated from melanoma; and MDA-MB-231 cells (Figure 10c) derived from metastatic phase of mammary/breast cancer.
as §3
(§4) Therefore, the influence of selected inhibitors was assessed by sequential re-insertion of low concentrations of inhibitors at indicated time points. The inhibitors were first added to the medium 8 hours after the inoculation followed by periodically additions at 24-hour intervals (marked by arrows).

COLO 829 cells [6] = assay: cytotoxicity in COLO 829 cells (LDH kit)
Description: as §3

COLO 829 cells [7] = assay: lactate excretion by COLO 829 cells
Description: (§5) Preliminary in vivo tests were run by measuring lactate production by three different tumorigenic cell lines. Again, 100 µM concentrations of tested compounds have been added to the medium. For the experiment, the following tumorigenic cells lines originating from different tumours were tested: Caco-2 cells (Figure 10a), originating from colorectal adenoma carcinoma; COLO 829 cells (Figure 10b), isolated from melanoma; and MDA-MB-231 cells (Figure 10c) derived from metastatic phase of mammary/breast cancer. All adherent cell lines were grown in the RPMI 1640 GlutaMAX substrate (Thermo Fisher) supplemented with 10% FBS.
On the basis of preliminary results, inhibitors No. 23, 29, 30 and 31 were tested on COLO 829 cells. […] No significant discrepancies of total cell numbers in respect to the control were observed due to the different concentrations of inhibitors in the medium (Figure 13e). The average percent of dead COLO 829 cells in the control and in the presence of different concentrations of inhibitors were as follows: inh. 23 (9,23±0,6%), inh. 29 (9,31±0,73%), inh. 30 (8,27±0,49%), inh. 31 (8,26±0,38%). Additionally, cytotoxicity of inh. 3 (5,01±1,08%) and 9 (3,65±0,78%) for COLO 829 cells were also determined. No dose dependent decrease of survival was observed by any inhibitor.
as §4, with “A decrease in inhibitory effectiveness of some compounds was observed after certain period of time (Example 11). […] Therefore,” for “Therefore,”
No significant cytostatic (Figure 16f) of cytotoxic effect of inhibitors could be detected after 92 hours of incubation despite of sequential addition of various concentrations of inhibitors. The following average percentages of dead cells were perceived in the medium without and media with inh. 3 (1,95±0,15%) inh. 9 (1,70±0,14%), inh. 23 (2,40±0,09%), inh. 29 (1,66±0,25%) and inh. 30 (1,38±0,18%). No detrimental effects of increased inhibitors concentrations on cell deaths have been observed.

MDA-MB-231 cells [8] = assay: lactate excretion by MDA-MB-231 cells; conditions: single addition, different concentrations
Description: as §5, §1
as §4, with “A decrease in inhibitory effectiveness of some compounds was observed after certain period of time (Example 11). […] Therefore,” for “Therefore,”
as §2

[9] = sequential addition at 24-hour intervals, 92 hours, average over medium without and with inhibitor
[10] = single addition, average over control and different concentrations of inhibitor

For `O=C(CCS(=O)(=O)c1ccc(Cl)cc1)Nc1nnc(-c2ccno2)o1` [Inhibitor No. 29, 3-(4-chlorophenyl)sulfonyl-N-(5-isoxazol-5-yl-1,3,4-oxadiazol-2-yl)propanamide], the “total cell numbers, MDA-MB-231” value (MDA-MB-231 cells [1]) was “dose dependent decrease of cell numbers”, the “average percentages of dead cells, Caco-2, sequential re-insertion” value (Caco-2 cells [2]; [9]) was 4,57±0,04% and the “average percent of dead cells, Caco-2” value (Caco-2 cells [2]; [10]) was 4,95±0,27%. For the same compound, the “total cell numbers, Caco-2” value (Caco-2 cells [3]) was “minor dose dependent reductions in total cell numbers”, the “average percentages of dead cells, MDA-MB-231, sequential re-insertion” value (MDA-MB-231 cells [4]; [9]) was 1,54±0,16% and the “average percent of dead MDA-MB-231 cells” value (MDA-MB-231 cells [4]; [10]) was 3,37±0,39%. For the same compound, the “lactate generation by Caco-2 cells” value (Caco-2 cells [5]) was “effectively reduced the lactate accumulation in the medium in a dose dependent manner”, the “average percentages of dead cells, COLO 829, sequential re-insertion” value (COLO 829 cells [6]; [9]) was 1,66±0,25% and the “average percent of dead COLO 829 cells” value (COLO 829 cells [6]; [10]) was 9,31±0,73%. For the same compound, the “lactate formation in COLO 829 cells, sequential re-insertion” value (COLO 829 cells [7]; inhibitor added 8 hours after inoculation, then at 24-hour intervals, low concentrations (from 10 µM)) was “slightly weaker inhibitions”, the “lactate excretion by COLO 829 cells” value (COLO 829 cells [7]; single addition, different concentrations) was “strongest reductions of lactate excretion” and the “lactate excretion by MDA-MB-231 cells” value (MDA-MB-231 cells [8]) was “dose dependent inhibition of lactate excretion”.
